Laboratory results published in publication PMC5666424, “Marine-Derived 2-Aminoimidazolone Alkaloids. Leucettamine B-Related Polyandrocarpamines Inhibit Mammalian and Protozoan DYRK & CLK Kinases” (Marine Drugs, 2017).

Legend:
Assay in all cases: KinomeScan
Assay type in all cases: binding
Settings in all cases: 1 μM
MST2 = molecular target: T1, MST2 (Homo sapiens, UniProt Q13188)
T1 construct: purchased DiscoverX (KINOMEscan)

NLK = molecular target: T2, NLK (Homo sapiens, UniProt Q9UBE8)
T2 construct: purchased DiscoverX (KINOMEscan)

FLT1 = molecular target: T3, FLT1 (Homo sapiens, UniProt P17948)
T3 construct: purchased DiscoverX (KINOMEscan)

ABL2 = molecular target: T4, ABL2 (Homo sapiens, UniProt P42684)
T4 construct: purchased DiscoverX (KINOMEscan)

LKB1 = molecular target: T5, LKB1 (Homo sapiens, UniProt Q15831)
T5 construct: purchased DiscoverX (KINOMEscan)

MAP3K4 = molecular target: T6, MAP3K4 (Homo sapiens, UniProt Q9Y6R4)
T6 construct: purchased DiscoverX (KINOMEscan)

TTK = molecular target: T7, TTK (Homo sapiens, UniProt P33981)
T7 construct: purchased DiscoverX (KINOMEscan)

GRK4 = molecular target: T8, GRK4 (Homo sapiens, UniProt P32298)
T8 construct: purchased DiscoverX (KINOMEscan)

GSK3B = molecular target: T9, GSK3B (Homo sapiens, UniProt P49841)
T9 construct: purchased DiscoverX (KINOMEscan)

MAP3K15 = molecular target: T10, MAP3K15 (Homo sapiens, UniProt Q6ZN16)
T10 construct: purchased DiscoverX (KINOMEscan)

EPHB1 = molecular target: T11, EPHB1 (Homo sapiens, UniProt P54762)
T11 construct: purchased DiscoverX (KINOMEscan)

HIPK4 = molecular target: T12, HIPK4 (Homo sapiens, UniProt Q8NE63)
T12 construct: purchased DiscoverX (KINOMEscan)

GSK3A = molecular target: T13, GSK3A (Homo sapiens, UniProt P49840)
T13 construct: purchased DiscoverX (KINOMEscan)

VRK2 = molecular target: T14, VRK2 (Homo sapiens, UniProt Q86Y07)
T14 construct: purchased DiscoverX (KINOMEscan)

HUNK = molecular target: T15, HUNK (Homo sapiens, UniProt P57058)
T15 construct: purchased DiscoverX (KINOMEscan)

MEK6 = molecular target: T16, MEK6 (Homo sapiens, UniProt P52564)
T16 construct: purchased DiscoverX (KINOMEscan)

CDK7 = molecular target: T17, CDK7 (Homo sapiens, UniProt P50613)
T17 construct: purchased DiscoverX (KINOMEscan)

[1] = molecular target: T18, EGFR(L747-S752del, P753S) (Homo sapiens, UniProt P00533, DEL747-752/P753S)
T18 construct: purchased DiscoverX (KINOMEscan)

EPHA8 = molecular target: T19, EPHA8 (Homo sapiens, UniProt P29322)
T19 construct: purchased DiscoverX (KINOMEscan)

YSK4 = molecular target: T20, YSK4 (Homo sapiens, UniProt Q56UN5)
T20 construct: purchased DiscoverX (KINOMEscan)

AXL = molecular target: T21, AXL (Homo sapiens, UniProt P30530)
T21 construct: purchased DiscoverX (KINOMEscan)

SRPK3 = molecular target: T22, SRPK3 (Homo sapiens, UniProt Q9UPE1)
T22 construct: purchased DiscoverX (KINOMEscan)

LATS2 = molecular target: T23, LATS2 (Homo sapiens, UniProt Q9NRM7)
T23 construct: purchased DiscoverX (KINOMEscan)

VEGFR2 = molecular target: T24, VEGFR2 (Homo sapiens, UniProt P35968)
T24 construct: purchased DiscoverX (KINOMEscan)

KIT(D816V) = molecular target: T25, KIT(D816V) (Homo sapiens, UniProt P10721, D816V)
T25 construct: purchased DiscoverX (KINOMEscan)

MET(M1250T) = molecular target: T26, MET(M1250T) (Homo sapiens, UniProt P08581, M1250T)
T26 construct: purchased DiscoverX (KINOMEscan)

NEK4 = molecular target: T27, NEK4 (Homo sapiens, UniProt P51957)
T27 construct: purchased DiscoverX (KINOMEscan)

YANK2 = molecular target: T28, YANK2 (Homo sapiens, UniProt Q9NY57)
T28 construct: purchased DiscoverX (KINOMEscan)

GCN2(Kin.Dom.2,S808G) = molecular target: T29, GCN2(Kin.Dom.2,S808G) (Homo sapiens, UniProt Q9P2K8, S808G)
T29 construct: GCN2(Kin.Dom.2,S808G); purchased DiscoverX (KINOMEscan)

TXK = molecular target: T30, TXK (Homo sapiens, UniProt P42681)
T30 construct: purchased DiscoverX (KINOMEscan)

HPK1 = molecular target: T31, HPK1 (Homo sapiens, UniProt Q92918)
T31 construct: purchased DiscoverX (KINOMEscan)

EPHB2 = molecular target: T32, EPHB2 (Homo sapiens, UniProt P29323)
T32 construct: purchased DiscoverX (KINOMEscan)

HIPK3 = molecular target: T33, HIPK3 (Homo sapiens, UniProt Q9H422)
T33 construct: purchased DiscoverX (KINOMEscan)

CAMK1D = molecular target: T34, CAMK1D (Homo sapiens, UniProt Q8IU85)
T34 construct: purchased DiscoverX (KINOMEscan)

BRAF = molecular target: T35, BRAF (Homo sapiens, UniProt P15056)
T35 construct: purchased DiscoverX (KINOMEscan)

SRMS = molecular target: T36, SRMS (Homo sapiens, UniProt Q9H3Y6)
T36 construct: purchased DiscoverX (KINOMEscan)

CAMK2A = molecular target: T37, CAMK2A (Homo sapiens, UniProt Q9UQM7)
T37 construct: purchased DiscoverX (KINOMEscan)

T11 sequence (P54762 18-984): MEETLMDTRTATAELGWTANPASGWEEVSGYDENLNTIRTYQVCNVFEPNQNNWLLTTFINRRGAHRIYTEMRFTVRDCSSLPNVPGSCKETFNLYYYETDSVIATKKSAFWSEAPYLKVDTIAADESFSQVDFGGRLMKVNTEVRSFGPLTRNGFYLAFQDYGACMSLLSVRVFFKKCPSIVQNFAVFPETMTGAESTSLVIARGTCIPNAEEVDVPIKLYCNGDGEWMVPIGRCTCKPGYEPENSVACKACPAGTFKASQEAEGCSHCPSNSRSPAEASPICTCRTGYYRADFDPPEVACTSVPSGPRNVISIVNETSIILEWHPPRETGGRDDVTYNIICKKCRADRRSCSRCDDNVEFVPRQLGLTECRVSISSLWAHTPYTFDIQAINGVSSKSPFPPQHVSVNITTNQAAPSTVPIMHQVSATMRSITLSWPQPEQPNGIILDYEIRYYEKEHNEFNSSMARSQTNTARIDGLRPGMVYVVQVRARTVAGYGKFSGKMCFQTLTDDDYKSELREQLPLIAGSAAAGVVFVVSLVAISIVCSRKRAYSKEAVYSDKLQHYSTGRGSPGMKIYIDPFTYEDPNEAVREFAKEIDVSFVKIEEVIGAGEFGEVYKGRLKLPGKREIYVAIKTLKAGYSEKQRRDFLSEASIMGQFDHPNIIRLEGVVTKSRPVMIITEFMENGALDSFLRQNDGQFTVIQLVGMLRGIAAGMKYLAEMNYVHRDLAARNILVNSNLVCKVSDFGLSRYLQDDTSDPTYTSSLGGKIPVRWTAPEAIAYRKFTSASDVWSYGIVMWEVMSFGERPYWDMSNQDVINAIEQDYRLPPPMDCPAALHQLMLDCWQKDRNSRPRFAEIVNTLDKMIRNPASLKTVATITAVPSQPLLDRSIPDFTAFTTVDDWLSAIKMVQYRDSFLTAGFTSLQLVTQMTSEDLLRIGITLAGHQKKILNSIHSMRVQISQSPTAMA
T13 sequence (P49840 whole entry): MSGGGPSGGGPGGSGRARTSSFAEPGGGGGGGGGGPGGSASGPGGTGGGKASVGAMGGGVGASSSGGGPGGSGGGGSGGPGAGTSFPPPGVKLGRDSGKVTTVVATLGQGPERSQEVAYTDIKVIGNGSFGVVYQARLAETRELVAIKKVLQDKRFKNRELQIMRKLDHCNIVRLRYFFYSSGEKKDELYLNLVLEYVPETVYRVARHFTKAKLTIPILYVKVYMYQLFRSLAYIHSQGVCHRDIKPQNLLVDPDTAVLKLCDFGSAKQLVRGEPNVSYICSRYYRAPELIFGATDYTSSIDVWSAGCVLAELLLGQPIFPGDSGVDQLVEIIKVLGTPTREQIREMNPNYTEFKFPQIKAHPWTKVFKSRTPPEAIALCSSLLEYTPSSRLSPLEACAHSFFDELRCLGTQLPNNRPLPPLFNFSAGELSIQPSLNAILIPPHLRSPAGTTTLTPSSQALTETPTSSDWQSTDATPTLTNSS
T16 sequence (P52564 whole entry): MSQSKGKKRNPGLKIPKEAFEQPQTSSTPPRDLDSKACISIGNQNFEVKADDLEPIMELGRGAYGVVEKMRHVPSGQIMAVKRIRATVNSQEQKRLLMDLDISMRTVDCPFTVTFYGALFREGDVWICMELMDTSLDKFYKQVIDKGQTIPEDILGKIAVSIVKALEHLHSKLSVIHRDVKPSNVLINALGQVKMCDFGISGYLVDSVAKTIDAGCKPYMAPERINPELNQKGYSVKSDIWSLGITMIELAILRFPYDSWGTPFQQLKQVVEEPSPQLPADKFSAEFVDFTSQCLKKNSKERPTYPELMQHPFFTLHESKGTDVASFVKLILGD
T21 sequence (P30530 26-894): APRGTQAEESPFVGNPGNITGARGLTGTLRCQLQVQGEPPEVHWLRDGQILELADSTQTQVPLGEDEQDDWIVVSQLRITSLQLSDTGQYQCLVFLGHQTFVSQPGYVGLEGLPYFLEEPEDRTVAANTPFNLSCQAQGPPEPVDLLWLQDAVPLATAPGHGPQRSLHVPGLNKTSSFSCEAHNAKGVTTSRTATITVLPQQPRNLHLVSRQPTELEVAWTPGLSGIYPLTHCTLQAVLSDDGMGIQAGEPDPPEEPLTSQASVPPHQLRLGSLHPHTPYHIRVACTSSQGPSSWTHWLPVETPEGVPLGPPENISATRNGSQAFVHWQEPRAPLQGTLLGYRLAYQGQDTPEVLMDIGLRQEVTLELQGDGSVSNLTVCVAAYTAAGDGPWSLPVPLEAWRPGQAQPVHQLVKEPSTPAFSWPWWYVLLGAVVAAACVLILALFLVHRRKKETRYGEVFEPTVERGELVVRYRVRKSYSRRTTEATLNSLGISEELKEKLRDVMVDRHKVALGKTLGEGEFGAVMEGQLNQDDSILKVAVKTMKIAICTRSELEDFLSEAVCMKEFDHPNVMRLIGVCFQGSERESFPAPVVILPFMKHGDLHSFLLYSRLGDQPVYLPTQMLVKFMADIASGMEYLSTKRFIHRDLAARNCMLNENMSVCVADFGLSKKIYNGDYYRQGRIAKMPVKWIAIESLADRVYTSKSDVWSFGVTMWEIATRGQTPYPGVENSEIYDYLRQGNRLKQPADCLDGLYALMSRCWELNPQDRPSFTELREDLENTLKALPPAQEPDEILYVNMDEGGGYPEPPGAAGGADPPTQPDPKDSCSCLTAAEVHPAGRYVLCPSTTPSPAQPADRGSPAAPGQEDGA
T22 sequence (Q9UPE1 whole entry): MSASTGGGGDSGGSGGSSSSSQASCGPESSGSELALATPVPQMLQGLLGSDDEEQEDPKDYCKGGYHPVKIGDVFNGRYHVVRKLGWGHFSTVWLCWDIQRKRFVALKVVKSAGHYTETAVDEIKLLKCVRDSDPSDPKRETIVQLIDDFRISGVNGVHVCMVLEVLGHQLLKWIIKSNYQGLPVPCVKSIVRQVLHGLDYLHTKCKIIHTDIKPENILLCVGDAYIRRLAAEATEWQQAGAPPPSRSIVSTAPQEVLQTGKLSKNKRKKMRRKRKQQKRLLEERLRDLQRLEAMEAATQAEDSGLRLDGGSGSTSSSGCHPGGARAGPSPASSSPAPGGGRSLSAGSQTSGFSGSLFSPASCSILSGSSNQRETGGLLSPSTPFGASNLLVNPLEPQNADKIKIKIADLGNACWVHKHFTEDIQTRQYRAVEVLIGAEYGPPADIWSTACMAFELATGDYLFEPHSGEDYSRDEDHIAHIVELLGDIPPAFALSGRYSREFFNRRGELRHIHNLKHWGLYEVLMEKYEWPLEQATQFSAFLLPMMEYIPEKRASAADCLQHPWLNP
T2 sequence (Q9UBE8 whole entry): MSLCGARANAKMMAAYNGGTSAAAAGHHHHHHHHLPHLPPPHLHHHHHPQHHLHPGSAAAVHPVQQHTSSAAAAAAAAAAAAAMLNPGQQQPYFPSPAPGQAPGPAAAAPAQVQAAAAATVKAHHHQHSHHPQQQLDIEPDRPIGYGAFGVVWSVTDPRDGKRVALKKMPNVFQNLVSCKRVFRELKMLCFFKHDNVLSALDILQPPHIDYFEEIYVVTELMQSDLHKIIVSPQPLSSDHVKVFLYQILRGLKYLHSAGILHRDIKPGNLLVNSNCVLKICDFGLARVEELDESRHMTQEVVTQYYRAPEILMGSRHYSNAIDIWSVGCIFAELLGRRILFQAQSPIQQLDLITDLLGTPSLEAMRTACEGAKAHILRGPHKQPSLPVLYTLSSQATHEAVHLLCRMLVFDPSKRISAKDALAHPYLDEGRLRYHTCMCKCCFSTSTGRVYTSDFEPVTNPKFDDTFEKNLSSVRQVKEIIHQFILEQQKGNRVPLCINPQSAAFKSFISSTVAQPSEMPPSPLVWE
T18 sequence (P00533 with tags, fused parts or gaps DEL747-752/P753S limits assumed): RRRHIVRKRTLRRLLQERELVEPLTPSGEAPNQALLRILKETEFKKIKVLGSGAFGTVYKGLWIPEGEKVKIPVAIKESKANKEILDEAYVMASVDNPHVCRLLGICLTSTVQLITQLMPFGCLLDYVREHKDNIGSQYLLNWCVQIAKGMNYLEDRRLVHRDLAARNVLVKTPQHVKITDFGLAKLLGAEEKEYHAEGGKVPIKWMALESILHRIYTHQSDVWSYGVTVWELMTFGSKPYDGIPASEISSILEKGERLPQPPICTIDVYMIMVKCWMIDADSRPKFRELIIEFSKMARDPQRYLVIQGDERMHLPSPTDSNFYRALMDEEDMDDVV
T35 sequence (P15056 whole entry): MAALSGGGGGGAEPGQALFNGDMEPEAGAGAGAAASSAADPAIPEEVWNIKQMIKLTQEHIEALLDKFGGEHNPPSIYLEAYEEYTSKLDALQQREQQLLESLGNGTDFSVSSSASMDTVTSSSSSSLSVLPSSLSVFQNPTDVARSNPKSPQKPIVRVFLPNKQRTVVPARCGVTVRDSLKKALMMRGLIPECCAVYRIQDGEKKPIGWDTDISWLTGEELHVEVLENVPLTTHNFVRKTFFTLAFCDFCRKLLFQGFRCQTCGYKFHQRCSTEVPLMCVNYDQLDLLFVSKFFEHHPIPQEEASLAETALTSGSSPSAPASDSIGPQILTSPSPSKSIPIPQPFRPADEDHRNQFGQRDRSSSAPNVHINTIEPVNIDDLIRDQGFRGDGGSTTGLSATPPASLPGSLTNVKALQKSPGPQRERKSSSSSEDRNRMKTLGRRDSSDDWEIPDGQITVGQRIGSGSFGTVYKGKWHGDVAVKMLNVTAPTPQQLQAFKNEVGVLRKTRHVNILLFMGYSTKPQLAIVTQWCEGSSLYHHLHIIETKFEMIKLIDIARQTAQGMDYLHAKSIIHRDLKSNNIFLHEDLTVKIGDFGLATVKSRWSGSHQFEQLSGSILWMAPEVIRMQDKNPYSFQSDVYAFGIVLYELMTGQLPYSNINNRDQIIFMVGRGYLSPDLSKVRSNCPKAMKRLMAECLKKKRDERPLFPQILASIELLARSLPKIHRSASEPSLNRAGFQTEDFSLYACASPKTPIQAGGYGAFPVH

COc1cc(/C=C2\N=C(N)NC2=O)ccc1O [Polyandrocarpamine A] showed a Score (MST2) of 100, a Score (NLK) of 100 and a Score (FLT1) of 100. It also gave a Score (ABL2) of 87, a Score (LKB1) of 100 and a Score (MAP3K4) of 100. It also gave a Score (TTK) of 100, a Score (GRK4) of 100 and a Score (GSK3B) of 100. The Score (MAP3K15) was 100, the Score (EPHB1) was 89 and the Score (HIPK4) was 85. For the same compound, the Score (GSK3A) was 100, the Score (VRK2) was 100 and the Score (HUNK) was 100. It also gave a Score (MEK6) of 100, a Score (CDK7) of 100 and a Score [1] of 100. For the same compound, the Score (EPHA8) was 100, the Score (YSK4) was 100 and the Score (AXL) was 100. It also gave a Score (SRPK3) of 100, a Score (LATS2) of 100 and a Score (VEGFR2) of 100. The Score (KIT(D816V)) was 100, the Score (MET(M1250T)) was 97 and the Score (NEK4) was 100. For the same compound, the Score (YANK2) was 94, the Score (GCN2(Kin.Dom.2,S808G)) was 90 and the Score (TXK) was 100. The Score (HPK1) was 100, the Score (EPHB2) was 79 and the Score (HIPK3) was 19. It also gave a Score (CAMK1D) of 100, a Score (BRAF) of 100 and a Score (SRMS) of 100. The Score (CAMK2A) was 98.
